One may read the pEC50 as −log10 of the EC50, conventionally taken in molar units. The low end stands for a high EC50, the high end for a low EC50. As usually defined, the kinetic solubility is solubility judged after dilution from a stock solution rather than from solid.

Molecules are shown by their SMILES. pEC50: −log10 of the molar value. ≈ marks a conversion by molar mass, not a printed value.

Sequence of hPARG (Q86W56 whole entry): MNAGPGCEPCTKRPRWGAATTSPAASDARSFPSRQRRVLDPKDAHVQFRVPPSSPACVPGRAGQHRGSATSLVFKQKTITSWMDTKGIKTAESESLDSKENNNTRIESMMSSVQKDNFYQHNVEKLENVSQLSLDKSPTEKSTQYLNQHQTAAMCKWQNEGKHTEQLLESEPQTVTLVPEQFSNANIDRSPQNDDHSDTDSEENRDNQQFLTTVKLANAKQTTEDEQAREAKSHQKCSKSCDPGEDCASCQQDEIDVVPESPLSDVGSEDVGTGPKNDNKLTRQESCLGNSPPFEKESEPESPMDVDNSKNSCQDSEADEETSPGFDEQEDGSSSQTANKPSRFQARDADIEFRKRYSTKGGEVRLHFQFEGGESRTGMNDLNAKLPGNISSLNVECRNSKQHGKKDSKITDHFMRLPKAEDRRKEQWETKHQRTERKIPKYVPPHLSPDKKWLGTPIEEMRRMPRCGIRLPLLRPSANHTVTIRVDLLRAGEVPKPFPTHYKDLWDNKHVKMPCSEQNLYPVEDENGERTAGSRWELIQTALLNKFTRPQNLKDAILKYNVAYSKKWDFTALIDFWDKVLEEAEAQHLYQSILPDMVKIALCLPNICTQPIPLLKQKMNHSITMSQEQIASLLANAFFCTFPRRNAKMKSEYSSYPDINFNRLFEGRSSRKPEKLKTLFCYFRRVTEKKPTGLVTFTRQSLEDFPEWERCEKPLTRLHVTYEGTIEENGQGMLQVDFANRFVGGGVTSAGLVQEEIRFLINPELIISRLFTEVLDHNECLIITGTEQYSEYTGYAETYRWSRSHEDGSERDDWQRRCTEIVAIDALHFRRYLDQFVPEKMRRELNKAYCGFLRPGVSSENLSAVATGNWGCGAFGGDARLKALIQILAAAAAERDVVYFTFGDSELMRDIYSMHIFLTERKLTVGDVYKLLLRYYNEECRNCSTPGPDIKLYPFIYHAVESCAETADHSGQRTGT

One data set addresses hPARG (Homo sapiens (Human), UniProt Q86W56). Description: Inhibition of PARG enzymatic assay (TR-FRET). Particulars: geometric mean; 1 hr compound/enzyme pre-incubation. Format: biochemical. How it is done:
PARG enzyme was incubated with compound or vehicle (DMSO) and the biotinylated-PARylated PARP-1 substrate in a microtiter plate. After adding detection antibody and streptavidin-europium, and then incubating, the plate was read for fluorescence intensity. The low control (DMSO) with low fluorescence intensity represents no inhibition of enzymatic activity, while the high control (no enzyme) with high fluorescence intensity represents full inhibition of enzymatic activity.
• 0% inhibition: DMSO • 100% inhibition: No enzyme Enzyme reaction and Detection: • 1. Transfer 200 nL of 100× compound or DMSO to the appropriate wells of a 384 well white polystyrene microtitre plate (Corning Catalog #3574). • 2. Transfer 10 uL of 2× final concentration of enzyme in assay buffer or assay buffer alone to the appropriate wells. • 3. Centrifuge the plate at 1000 rpm for 30 seconds. • 4. Incubate the plate at room temperature for 1 hour. • 5. Transfer 10 uL of 2× substrate in assay buffer to all test wells. • 6. Incubate the plate at room temperature for 10 minutes • 7. Transfer 10 uL of 3× mixture of 42 nM detection antibody and 2.25 nM streptavidin-europium in 50 mM Tris-HCL pH 7.4 to all test wells. • 8. Incubate the plate at room temperature for 1 hour. • 9. Read the plate on a plate reader (Envision) • Excitation: 317 nm • Emission: 620 nm • Emission: 665 nm
EC50 values were calculated in Collaborative Drug Discovery vault (CDD). Curves were fitted by CDD as response (%) vs compound concentration (uM) using a 4-parameter inhibition model using Formula 1.
(§1) Fit=(A+((B−A)/(1+((C/x)^D))))
As to `CC(C)C(=O)N1CCN(c2cc(S(=O)(=O)NC3(C#N)CC3)cc3c2cnn3-c2nnc(C(F)F)s2)C[C@@H]1C`, the pEC50 is 7.12.
On the same count and under the same terms, in the case of `CN1CCN(c2cc(S(=O)(=O)NC3(C#N)CC3)cc3c2cnn3-c2nnc(C(F)F)s2)CC1` it was 6.70; in that of `C[C@H]1CN(c2cc(S(=O)(=O)NC3(C#N)CC3)cc3c2cnn3-c2nnc(C(F)F)s2)CCN1C(=O)N(C)C`, 7.85; in that of `Cc1nnc(-n2ccc3ccc(S(=O)(=O)NC4(C)CC4)cc32)s1`, less than 5.00.
On the same count and under the same terms, then `C[C@@H]1CN(c2cc(S(=O)(=O)NC3(C)CC3)cc3c2cnn3-c2nnc(C(F)F)s2)C[C@@H](C)N1`, with 7.29.
Still for that read-out and setting: in the case of `C[C@@H]1CN(c2cc(S(=O)(=O)NC3(C)CC3)cc3c2cnn3-c2nnc(C(F)F)s2)C[C@H](C)N1` it was 7.82.

The subject of the next data set is SNU601-NucLight Red cells. Kind of data set: Cellular viability assay, SNU601-NucLight Red. Format: cell-based. The note with it: SNU-601, 168 h, 7 days incubation, geometric mean. As for the experimental part: (§2) The ability of the compounds disclosed herein to inhibit PARG was determined in the following two cell lines: RMUGS-NucLight Red and SNU601-NucLight Red. RMUGS-NucLight Red and SNU601-NucLight Red cells were generated by stably transducing parental cells (RMUGS-JCRB Cell Bank, Cat no: IF050320; SNU601-Korean Cell Line Bank, Cat no:00601) with Incucyte® NucLight Red lentivirus (Sartorius, Cat no: 4476). Described below are the protocols followed for both the cell lines.
(§3) The cells were plated at 200 cells/well in a 384-well black plate with clear flat bottom. After 24 hours, the plates were imaged using the Incucyte® S3 Live-Cell Analysis system and the number of live cells in each well (Day 0) was counted. Test compounds were then added by Tecan digital dispenser to generate a 9 point dose curve with a 3 fold dilution and 10 uM top concentration. All treatments were done in triplicates. After 7 days of incubation, the plates were imaged using the Incucyte® S3 system and the number of live cells per well (Day 7) was counted. For every well on the plate, the live cell counts on day 7 was normalized to the cell counts from day 0 (Day 7/Day 0). Average values of DMSO treated wells in a plate were calculated. All the data points were normalized to that of the average DMSO value. The % of control for each sample was compared to DMSO treated control samples. EC50 values were calculated in Collaborative Drug Discovery vault (CDD). Curves were fitted by CDD as % of control vs. log [compound concentration] using a 4-parameter inhibition model (Levenberg-Marquardt algorithm):
as §1
When clear bi-phasic behavior was observed on the resulting data the EC50 was calculated in GraphPad Prism Software for the major fraction of the response using the following formula:
Section1=Span*Frac/(1+10^((Log EC50_1−X)*nH1))
Section2=Span*(1−Frac)/(1+10^((Log EC50_2−X)*nH2))
As for `CC(C)C(=O)N1CCN(c2cc(S(=O)(=O)NC3(C#N)CC3)cc3c2cnn3-c2nnc(C(F)F)s2)C[C@@H]1C`, the pEC50 was 6.74.
For `CN1CCN(c2cc(S(=O)(=O)NC3(C#N)CC3)cc3c2cnn3-c2nnc(C(F)F)s2)CC1`, the pEC50 is 5.80.
Still for that read-out and setting: in the case of `C[C@H]1CN(c2cc(S(=O)(=O)NC3(C#N)CC3)cc3c2cnn3-c2nnc(C(F)F)s2)CCN1C(=O)N(C)C` it was 6.96.
The compound `Cc1nnc(-n2ccc3ccc(S(=O)(=O)NC4(C)CC4)cc32)s1` showed a pEC50 of less than 5.00.
Compound `C[C@@H]1CN(c2cc(S(=O)(=O)NC3(C)CC3)cc3c2cnn3-c2nnc(C(F)F)s2)C[C@@H](C)N1` had a pEC50 of 7.05.
The same measure, in the same setting: then `C[C@@H]1CN(c2cc(S(=O)(=O)NC3(C)CC3)cc3c2cnn3-c2nnc(C(F)F)s2)C[C@H](C)N1`, with 7.57.

The test system of another data set is RMUGS-NucLight Red cells. Description: Cellular viability assay, RMUGS-NucLight Red. Format: cell-based. Particulars: 168 h, 7 days incubation, geometric mean. As for the experimental part:
as §2
as §3, with “1000” for “200”, “96-well” for “384-well”, “duplicates.” for “triplicates.”, “[…]” for “EC50”
as §1
In the case of `CC(C)C(=O)N1CCN(c2cc(S(=O)(=O)NC3(C#N)CC3)cc3c2cnn3-c2nnc(C(F)F)s2)C[C@@H]1C`, the pEC50 is 6.86.
Same read-out and setting: in the case of `CN1CCN(c2cc(S(=O)(=O)NC3(C#N)CC3)cc3c2cnn3-c2nnc(C(F)F)s2)CC1` it was 6.36; in that of `C[C@H]1CN(c2cc(S(=O)(=O)NC3(C#N)CC3)cc3c2cnn3-c2nnc(C(F)F)s2)CCN1C(=O)N(C)C`, 7.11; in that of `Cc1nnc(-n2ccc3ccc(S(=O)(=O)NC4(C)CC4)cc32)s1`, less than 5.00.
`C[C@@H]1CN(c2cc(S(=O)(=O)NC3(C)CC3)cc3c2cnn3-c2nnc(C(F)F)s2)C[C@@H](C)N1` showed a negative logarithm of the EC50 (pEC50) of 7.49.
Turning to `C[C@@H]1CN(c2cc(S(=O)(=O)NC3(C)CC3)cc3c2cnn3-c2nnc(C(F)F)s2)C[C@H](C)N1`, the pEC50 was 7.96.

System in another data set: not listed separately
Description: Kinetic solubility in PBS pH 2.0 and pH 7.4. Format: physicochemical. The note with it: aqueous buffer, kinetic from dmso stock, PBS pH 2.0, 25° C., * n <3 runs, read-out: Kinetic Solubility pH 2.0. How it is done: • Control compound diclofenac sodium (LOT #BCBW9128) was purchased from Sigma Chemical Co. • 1.5 mL glass flat bottom vials (BioTech Solutions) • Molded PTFE/SIL plugs (BioTech Solutions) • PTFE encapsulated stir stick (V&P Scientific) • MultiScreenHTS HV (0.45 μm) 96 well plate (Millipore, MSHVN4510 or MSHVN4550) • Eppendorf Thermomixer Comfort • Vacuum Manifold ORVMN96. • PBS pH 2.0 and pH 7.4 was prepared in our laboratory
• diclofenac sodium (LOT #BCBW9128), Sigma Chemical Co.
• 1. Preparation of stock solutions. The stock solutions of test compounds and control compound diclofenac sodium were prepared in DMSO at the concentration of 30 mM and 10 mM, respectively. • 2. Procedure for solubility determination. 10 μL of stock solutions (30 mM) of test compounds was placed in order into their proper 96-well rack, 20 μL of DMSO and 970 μL of PBS pH 2.0 or pH 7.4 was added into each vial of the cap-less Solubility Sample plate; 30 μL of stock solution (10 mM) of control compound was placed in order into its proper 96-well rack, 970 μL of PBS pH 2.0 or pH 7.4 was added into each vial of the cap-less Solubility Sample plate. The assay was performed in duplicate. One stir stick was added to each vial and seal using a molded PTFE/Silicone plug. Then the Solubility Sample plate was transferred to the Eppendorf Thermomixer Comfort plate shaker and shaken at 25° C. at 1100 RPM for 24 hours. After completion of the 24 hours, plugs were removed and the stir sticks were removed using a big magnet, the samples from the Solubility Sample plate were transferred into the filter plate. Using the Vacuum Manifold, all the samples were filtered. Aliquot of 10 μL was taken from the filtrate followed by addition of 990 μL of a mixture of H2O and acetonitrile (1:1 in v/v). 200 μL of diluent was transferred to a new 96-well plate for LC-MS/MS analysis. The dilution factor was changed according to the solubility values and the LC-MS signal response. • 3. Preparation of 3 μM standards (STD). From the 10 mM or 30 mM DMSO STD plate, 15 μL or 5 μL was transferred into the remaining empty plate, and then 485 μL or 495 μL of DMSO was added to that plate to have a STD concentration of 300 μM. From the 300 μM DMSO STD plate, 5 μL was transferred into the remaining empty plate, and then 495 μL of a mixture of H2O and acetonitrile (1:1 in v/v) was added to that plate to have a final STD concentration of 3 μM. 200 μL of diluent was transferred to a new 96-well plate for LC-MS/MS analysis. The concentrations of the standard samples were changed according to the LC-MS signal response. • 4. Procedure for sample analysis. The plate was placed into the well plate autosampler. The samples were evaluated by LC-MS/MS analysis.
Regarding `CC(C)C(=O)N1CCN(c2cc(S(=O)(=O)NC3(C#N)CC3)cc3c2cnn3-c2nnc(C(F)F)s2)C[C@@H]1C`, the kinetic solubility at 24 h was found to be 3.4 µM (≈ 1.92 µg/mL).
Take `CN1CCN(c2cc(S(=O)(=O)NC3(C#N)CC3)cc3c2cnn3-c2nnc(C(F)F)s2)CC1`: the kinetic solubility at 24 h worked out at 289 µM (≈ 143 µg/mL).
In the case of `C[C@H]1CN(c2cc(S(=O)(=O)NC3(C#N)CC3)cc3c2cnn3-c2nnc(C(F)F)s2)CCN1C(=O)N(C)C`, the kinetic solubility at 24 h came out at 7.8 µM (≈ 4.41 µg/mL).
As for `Cc1nnc(-n2ccc3ccc(S(=O)(=O)NC4(C)CC4)cc32)s1`, the solubility (kinetic) at 24 h amounted to 29 µM (≈ 10.1 µg/mL).
For `C[C@@H]1CN(c2cc(S(=O)(=O)NC3(C)CC3)cc3c2cnn3-c2nnc(C(F)F)s2)C[C@@H](C)N1`, the kinetic solubility at 24 h came out at 261 µM (≈ 130 µg/mL).
Same read-out and setting: then `C[C@@H]1CN(c2cc(S(=O)(=O)NC3(C)CC3)cc3c2cnn3-c2nnc(C(F)F)s2)C[C@H](C)N1`, with 271 µM (≈ 135 µg/mL).

The same data set, now with this note: aqueous buffer, kinetic from dmso stock, PBS pH 7.4, 25° C., * n <3 runs, read-out: Kinetic Solubility pH 7.4.
As to `CC(C)C(=O)N1CCN(c2cc(S(=O)(=O)NC3(C#N)CC3)cc3c2cnn3-c2nnc(C(F)F)s2)C[C@@H]1C`, the kinetic solubility at 24 h was 8 µM (≈ 4.52 µg/mL).
For `CN1CCN(c2cc(S(=O)(=O)NC3(C#N)CC3)cc3c2cnn3-c2nnc(C(F)F)s2)CC1`, the solubility (kinetic) at 24 h was 2.7 µM (≈ 1.34 µg/mL).
Take `C[C@H]1CN(c2cc(S(=O)(=O)NC3(C#N)CC3)cc3c2cnn3-c2nnc(C(F)F)s2)CCN1C(=O)N(C)C`: the solubility (kinetic) at 24 h is 14 µM (≈ 7.92 µg/mL).
The same measure, in the same setting: in the case of `Cc1nnc(-n2ccc3ccc(S(=O)(=O)NC4(C)CC4)cc32)s1` it was 24 µM (≈ 8.36 µg/mL); in that of `C[C@@H]1CN(c2cc(S(=O)(=O)NC3(C)CC3)cc3c2cnn3-c2nnc(C(F)F)s2)C[C@@H](C)N1`, 41 µM (≈ 20.4 µg/mL).
Same read-out and setting: then `C[C@@H]1CN(c2cc(S(=O)(=O)NC3(C)CC3)cc3c2cnn3-c2nnc(C(F)F)s2)C[C@H](C)N1`, with 31 µM (≈ 15.4 µg/mL).

Values taken from patent US20230303556A1, “PIPERAZINE SUBSTITUTED INDAZOLE COMPOUNDS AS INHIBITORS OF PARG” (IDEAYA BIOSCIENCES, INC., priority 2022, published 2023).
